This passage reports TGI results from PubChem BioAssay (NCI).

Test systems include DMS 114 small cell lung; NCI-H522 lung; M19-MEL melanoma; SNB-78 CNS; P388/ADR leukemia; HOP-18 NSCLC; P388 leukemia; DMS 273 small cell lung; KM20L2 colon.
Holding throughout (assay): NCI tumour cell line growth inhibition, 48 h

SMILES strings stand for the structures.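 96-well plates; 48 h exposure; 5 concentrations. Endpoints by linear interpolation between flanking doses. Not reached: highest tested concentration assigned. TGI: concentration producing complete growth inhibition.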 Some results are limits rather than exact numbers.

`CCC1=CC2CN3CCc4c([nH]c5ccccc45)C(C(=O)OC)(C2)C13` (centres undefined): the TGI is 85.1 µM in the assay on DMS 114 small cell lung; 102 µM in the assay on NCI-H522 lung; 85.8 µM in the assay with M19-MEL melanoma; 167 µM in the assay on SNB-78 CNS; 131 µM in the assay on P388/ADR leukemia; over 30 µM with HOP-18 NSCLC. Further, the results for the TGI in the assay with P388 leukemia, with DMS 273 small cell lung and in the assay with KM20L2 colon were 93.1 µM, 91 µM and 19.3 µM, respectively.
